{"source": "patent US12180215B2", "about": "“Substituted pyrrolo[3,4-d]imidazoles as JAK inhibitors” (HENAN MEDINNO PHARMACEUTICAL TECHNOLOGY CO., LTD., priority 2019, dated 2024)", "key": {"[1]": {"biological_target": "JAK1 (Homo sapiens, UniProt P23458)", "sequence (P23458 850-1154 limits assumed)": "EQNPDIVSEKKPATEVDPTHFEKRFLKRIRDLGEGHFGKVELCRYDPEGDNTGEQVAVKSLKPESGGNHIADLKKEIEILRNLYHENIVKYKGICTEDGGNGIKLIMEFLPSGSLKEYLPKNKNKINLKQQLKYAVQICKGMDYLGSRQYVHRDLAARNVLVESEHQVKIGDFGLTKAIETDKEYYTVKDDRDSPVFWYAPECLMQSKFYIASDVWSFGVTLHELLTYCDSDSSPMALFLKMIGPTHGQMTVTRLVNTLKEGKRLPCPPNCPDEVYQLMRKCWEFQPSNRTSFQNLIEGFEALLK", "experiment": "JAK1 kinase ADP-Glo assay (Example 60)"}, "[2]": {"biological_target": "JAK2 (Homo sapiens, UniProt O60674)", "sequence (O60674 826-1132 limits assumed)": "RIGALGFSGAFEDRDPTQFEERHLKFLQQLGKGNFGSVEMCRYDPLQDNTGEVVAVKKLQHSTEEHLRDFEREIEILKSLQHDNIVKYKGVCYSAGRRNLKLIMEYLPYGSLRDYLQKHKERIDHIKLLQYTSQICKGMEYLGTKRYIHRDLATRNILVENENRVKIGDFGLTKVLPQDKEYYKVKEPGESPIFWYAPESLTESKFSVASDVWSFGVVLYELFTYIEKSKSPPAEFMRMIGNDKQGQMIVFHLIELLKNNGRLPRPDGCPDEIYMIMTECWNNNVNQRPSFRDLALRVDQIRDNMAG", "experiment": "JAK2 kinase ADP-Glo assay (Example 60)"}, "[3]": {"biological_target": "JAK3 (Homo sapiens, UniProt P52333)", "sequence (P52333 795-1124 limits assumed)": "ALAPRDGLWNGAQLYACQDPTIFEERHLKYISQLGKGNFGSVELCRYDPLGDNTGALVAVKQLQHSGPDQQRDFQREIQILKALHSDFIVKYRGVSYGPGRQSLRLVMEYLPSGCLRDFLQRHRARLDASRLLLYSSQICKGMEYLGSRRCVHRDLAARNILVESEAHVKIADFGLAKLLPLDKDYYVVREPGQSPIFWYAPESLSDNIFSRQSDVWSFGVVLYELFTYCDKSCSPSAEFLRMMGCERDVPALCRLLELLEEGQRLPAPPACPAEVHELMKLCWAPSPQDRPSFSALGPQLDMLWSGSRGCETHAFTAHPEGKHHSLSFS", "experiment": "JAK3 kinase ADP-Glo assay (Example 60)"}, "[4]": {"biological_target": "T1, TYK2 (Homo sapiens, UniProt P29597)", "T1 sequence (P29597 871-1187 limits assumed)": "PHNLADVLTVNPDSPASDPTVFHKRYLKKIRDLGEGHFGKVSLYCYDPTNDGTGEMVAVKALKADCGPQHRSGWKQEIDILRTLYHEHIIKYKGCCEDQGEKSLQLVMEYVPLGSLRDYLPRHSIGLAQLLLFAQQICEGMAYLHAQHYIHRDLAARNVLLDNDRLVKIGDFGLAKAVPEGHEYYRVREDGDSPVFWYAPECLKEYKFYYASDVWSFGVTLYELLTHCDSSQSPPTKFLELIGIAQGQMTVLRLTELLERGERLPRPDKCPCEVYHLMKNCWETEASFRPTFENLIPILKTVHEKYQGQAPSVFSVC", "experiment": "TYK2 kinase ADP-Glo assay (Example 60)"}}}
{"smiles": "CCc1cc(O)c(F)cc1-c1ccc2c(-c3nc4c([nH]3)CN(C(=O)OC)C4)n[nH]c2c1", "note": "[MDI-252, Methyl 2-(6-(2-ethyl-5-fluoro-4-hydroxyphenyl)-1H-indazol-3-yl)-4,6-dihydropyrrolo[3,4-d]imidazol-5(1H)-carboxylate]", "values": [{"measurement": "IC50", "setting": "[1]", "result": 1.8, "unit": "nM"}, {"measurement": "IC50", "setting": "[2]", "result": 2.6, "unit": "nM"}, {"measurement": "IC50", "setting": "[3]", "result": 2.2, "unit": "nM"}, {"measurement": "IC50", "setting": "[4]", "result": 22, "unit": "nM"}]}
{"smiles": "CCOC(=O)N1Cc2nc(-c3n[nH]c4cc(-c5cc(F)c(O)cc5CC)ccc34)[nH]c2C1", "note": "[MDI-253, Ethyl 2-(6-(2-ethyl-5-fluoro-4-hydroxyphenyl)-1H-indazol-3-yl)-4,6-dihydropyrrolo[3,4-d]imidazol-5(1H)-carboxylate]", "values": [{"measurement": "IC50", "setting": "[1]", "result": 2.9, "unit": "nM"}, {"measurement": "IC50", "setting": "[2]", "result": 1.6, "unit": "nM"}, {"measurement": "IC50", "setting": "[3]", "result": 1.5, "unit": "nM"}, {"measurement": "IC50", "setting": "[4]", "result": 31, "unit": "nM"}]}
{"smiles": "CCc1cc(O)c(F)cc1-c1ccc2c(-c3nc4c([nH]3)CN(C(=O)CC#N)C4)n[nH]c2c1", "note": "[MDI-256, 3-(2-(6-(2-ethyl-5-fluoro-4-hydroxyphenyl)-1H-indazol-3-yl)-4,6-dihydropyrrolo[3,4-d]imidazol-5(1H)-yl)-3-oxypropionitrile]", "values": [{"measurement": "IC50", "setting": "[1]", "result": 0.7, "unit": "nM"}, {"measurement": "IC50", "setting": "[2]", "result": 3.06, "unit": "nM"}, {"measurement": "IC50", "setting": "[3]", "result": 2.71, "unit": "nM"}, {"measurement": "IC50", "setting": "[4]", "result": 6.14, "unit": "nM"}]}
{"smiles": "CCc1cc(O)c(F)cc1-c1ccc2c(-c3nc4c([nH]3)CN(C(=O)N(C)C)C4)n[nH]c2c1", "note": "[MDI-257, 2-(6-(2-ethyl-5-fluoro-4-hydroxyphenyl)-1H-indazol-3-yl)-N,N-dimethyl-4,6-dihydropyrrolo[3,4-d]imidazol-5(1H)-carboxamide]", "values": [{"measurement": "IC50", "setting": "[1]", "result": 0.185, "unit": "nM"}, {"measurement": "IC50", "setting": "[2]", "result": 0.6, "unit": "nM"}, {"measurement": "IC50", "setting": "[3]", "result": 0.381, "unit": "nM"}, {"measurement": "IC50", "setting": "[4]", "result": 0.684, "unit": "nM"}]}
{"smiles": "CCc1cc(O)c(F)cc1-c1ccc2c(-c3nc4c([nH]3)CN(C(=O)NCCC#N)C4)n[nH]c2c1", "note": "[MDI-258, N-(2-cyanoethyl)-2-(6-(2-ethyl-5-fluoro-4-hydroxyphenyl)-1H-indazol-3-yl)-4,6-dihydropyrrolo[3,4-d]imidazole-5(1H)-carboxamide]", "values": [{"measurement": "IC50", "setting": "[1]", "result": 0.939, "unit": "nM"}, {"measurement": "IC50", "setting": "[2]", "result": 3.31, "unit": "nM"}, {"measurement": "IC50", "setting": "[3]", "result": 2.36, "unit": "nM"}, {"measurement": "IC50", "setting": "[4]", "result": 6.27, "unit": "nM"}]}
{"smiles": "CCc1cc(O)c(F)cc1-c1ccc2c(-c3nc4c([nH]3)CN(C(=O)NC3CC3)C4)n[nH]c2c1", "note": "[MDI-259, N-cyclopropyl-2-(6-(2-ethyl-5-fluoro-4-hydroxyphenyl)-1H-indazol-3-yl)-4,6-dihydropyrrolo[3,4-d]imidazol-5(1H)-carboxamide]", "values": [{"measurement": "IC50", "setting": "[1]", "result": 0.659, "unit": "nM"}, {"measurement": "IC50", "setting": "[2]", "result": 1.3, "unit": "nM"}, {"measurement": "IC50", "setting": "[3]", "result": 1.29, "unit": "nM"}, {"measurement": "IC50", "setting": "[4]", "result": 2.94, "unit": "nM"}]}
{"smiles": "CCc1cc(O)c(F)cc1-c1ccc2c(-c3nc4c([nH]3)CN(C(=O)NC3CCC3)C4)n[nH]c2c1", "note": "[MDI-260, N-cyclobutyl-2-(6-(2-ethyl-5-fluoro-4-hydroxyphenyl)-1H-indazol-3-yl)-4,6-dihydropyrrolo[3,4-d]imidazol-5(1H)-carboxamide]", "values": [{"measurement": "IC50", "setting": "[1]", "result": 2.28, "unit": "nM"}, {"measurement": "IC50", "setting": "[2]", "result": 2.99, "unit": "nM"}, {"measurement": "IC50", "setting": "[3]", "result": 2.47, "unit": "nM"}, {"measurement": "IC50", "setting": "[4]", "result": 8.98, "unit": "nM"}]}
{"smiles": "CCc1cc(O)c(F)cc1-c1ccc2c(-c3nc4c([nH]3)CN(C(=O)N3CC5(CNC5)C3)C4)n[nH]c2c1", "note": "[MDI-261, (2-(6-(2-ethyl-5-fluoro-4-hydroxyphenyl)-1H-indazol-3-yl)-4,6-dihydropyrrolo[3,4-d]imidazol-5(1H)-yl)(2,6-diazaspiro[3.3]heptan-2-yl)ketone]", "values": [{"measurement": "IC50", "setting": "[1]", "result": 0.154, "unit": "nM"}, {"measurement": "IC50", "setting": "[2]", "result": 0.703, "unit": "nM"}, {"measurement": "IC50", "setting": "[3]", "result": 0.473, "unit": "nM"}, {"measurement": "IC50", "setting": "[4]", "result": 1.16, "unit": "nM"}]}
{"smiles": "CCc1cc(O)c(F)cc1-c1ccc2c(-c3nc4c([nH]3)CN(C(=O)[C@@H]3CCCN3)C4)n[nH]c2c1", "note": "[MDI-262, (S)-6-(2-ethyl-5-fluoro-4-hydroxyphenyl)-3-(5-prolyl-1,4,5,6-tetrahydropyrrolo[3,4-d]imidazol-2-yl)-1H-indazol]", "values": [{"measurement": "IC50", "setting": "[1]", "result": 0.319, "unit": "nM"}, {"measurement": "IC50", "setting": "[2]", "result": 1.54, "unit": "nM"}, {"measurement": "IC50", "setting": "[3]", "result": 1.22, "unit": "nM"}, {"measurement": "IC50", "setting": "[4]", "result": 2.59, "unit": "nM"}]}
{"smiles": "CCc1cc(O)c(F)cc1-c1ccc2c(-c3nc4c([nH]3)CN(C(=O)[C@H]3CCCN3)C4)n[nH]c2c1", "note": "[MDI-263, (R)-6-(2-ethyl-5-fluoro-4-hydroxyphenyl)-3-(5-prolyl-1,4,5,6-tetrahydropyrrolo[3,4-d]imidazol-2-yl)-1H-indazol]", "values": [{"measurement": "IC50", "setting": "[1]", "result": 0.12, "unit": "nM"}, {"measurement": "IC50", "setting": "[2]", "result": 0.717, "unit": "nM"}, {"measurement": "IC50", "setting": "[3]", "result": 0.458, "unit": "nM"}, {"measurement": "IC50", "setting": "[4]", "result": 0.717, "unit": "nM"}]}
